From patent US20260109690A1, “HDAC6 INHIBITORS AND METHOD OF THEIR USE” (Baerenkraft Therapeutics, LLC., priority 2024, published 2026)
Where “and” joins values, the source holds several entries; their conditions need not be identical. Equal entries are not always repeated.

What was measured:
HDAC6 = target: T1, HDAC6 (Homo sapiens, UniProt Q9UBN7); experiment: NanoBRET assay for target engagement in HEK293 cells transiently transfected with HDAC6; type: cell-based; conditions: HEK293 cells transfected with HDAC6-NanoLuc Fusion vector, 1 hour
T1 sequence (Q9UBN7 1-1215): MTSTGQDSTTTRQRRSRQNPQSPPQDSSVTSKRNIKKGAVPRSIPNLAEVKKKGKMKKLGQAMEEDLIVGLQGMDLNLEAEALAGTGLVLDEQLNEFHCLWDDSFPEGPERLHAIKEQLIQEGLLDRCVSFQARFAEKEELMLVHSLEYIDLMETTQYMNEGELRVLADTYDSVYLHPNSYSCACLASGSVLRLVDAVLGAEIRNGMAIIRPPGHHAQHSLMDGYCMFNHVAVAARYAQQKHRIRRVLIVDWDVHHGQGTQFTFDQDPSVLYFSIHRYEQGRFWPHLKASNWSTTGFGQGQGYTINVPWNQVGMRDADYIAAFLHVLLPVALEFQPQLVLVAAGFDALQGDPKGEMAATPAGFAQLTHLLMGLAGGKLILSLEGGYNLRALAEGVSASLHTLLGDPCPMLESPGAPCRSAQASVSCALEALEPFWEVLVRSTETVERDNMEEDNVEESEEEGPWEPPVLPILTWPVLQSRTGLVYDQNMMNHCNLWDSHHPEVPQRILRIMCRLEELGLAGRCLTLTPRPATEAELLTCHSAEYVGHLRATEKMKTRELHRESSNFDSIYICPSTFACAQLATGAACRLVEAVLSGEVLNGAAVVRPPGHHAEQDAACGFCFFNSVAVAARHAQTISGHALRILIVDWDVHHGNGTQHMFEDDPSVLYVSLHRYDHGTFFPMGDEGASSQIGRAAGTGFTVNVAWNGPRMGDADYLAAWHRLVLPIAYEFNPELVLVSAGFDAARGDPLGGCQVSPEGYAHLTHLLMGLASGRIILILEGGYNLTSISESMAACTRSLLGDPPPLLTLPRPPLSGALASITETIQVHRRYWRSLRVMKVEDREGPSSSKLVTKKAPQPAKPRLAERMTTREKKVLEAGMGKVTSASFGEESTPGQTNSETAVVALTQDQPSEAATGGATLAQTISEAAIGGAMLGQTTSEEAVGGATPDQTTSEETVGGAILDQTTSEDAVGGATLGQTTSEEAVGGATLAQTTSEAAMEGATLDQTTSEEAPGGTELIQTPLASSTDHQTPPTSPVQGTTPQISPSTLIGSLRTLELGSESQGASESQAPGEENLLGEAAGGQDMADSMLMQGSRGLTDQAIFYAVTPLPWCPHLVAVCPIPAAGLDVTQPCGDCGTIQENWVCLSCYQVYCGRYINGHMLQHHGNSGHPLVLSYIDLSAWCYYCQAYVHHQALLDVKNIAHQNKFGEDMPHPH

HDAC7 = target: T2, HDAC7 (Homo sapiens, UniProt Q8WUI4); experiment: HDAC selectivity panel: HDAC7; type: biochemical
T2 sequence (Q8WUI4 1-952): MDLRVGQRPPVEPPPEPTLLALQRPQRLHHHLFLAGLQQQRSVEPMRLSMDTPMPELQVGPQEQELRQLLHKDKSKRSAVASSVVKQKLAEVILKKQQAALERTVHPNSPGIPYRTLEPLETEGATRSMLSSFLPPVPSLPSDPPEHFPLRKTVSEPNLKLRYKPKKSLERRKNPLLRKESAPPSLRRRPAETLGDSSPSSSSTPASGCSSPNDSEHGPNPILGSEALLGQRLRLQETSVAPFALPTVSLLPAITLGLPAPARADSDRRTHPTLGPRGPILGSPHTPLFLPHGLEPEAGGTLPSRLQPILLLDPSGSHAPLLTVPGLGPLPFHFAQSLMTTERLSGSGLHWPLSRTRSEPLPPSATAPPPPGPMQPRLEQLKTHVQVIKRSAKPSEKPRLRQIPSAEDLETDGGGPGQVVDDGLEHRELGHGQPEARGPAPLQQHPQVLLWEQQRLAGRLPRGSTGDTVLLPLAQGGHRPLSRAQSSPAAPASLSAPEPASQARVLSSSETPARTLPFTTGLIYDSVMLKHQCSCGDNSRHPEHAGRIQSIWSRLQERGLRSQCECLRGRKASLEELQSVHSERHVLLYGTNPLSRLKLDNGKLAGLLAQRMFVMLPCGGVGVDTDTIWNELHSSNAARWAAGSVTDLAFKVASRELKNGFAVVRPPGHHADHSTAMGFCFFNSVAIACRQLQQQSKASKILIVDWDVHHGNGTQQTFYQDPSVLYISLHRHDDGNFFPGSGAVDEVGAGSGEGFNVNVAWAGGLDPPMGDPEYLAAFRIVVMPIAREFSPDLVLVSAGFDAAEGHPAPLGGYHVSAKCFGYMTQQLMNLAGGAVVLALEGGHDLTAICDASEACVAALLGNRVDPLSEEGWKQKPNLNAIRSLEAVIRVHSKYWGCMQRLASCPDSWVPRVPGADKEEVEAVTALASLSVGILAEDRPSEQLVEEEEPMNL

Tg2576 AD Disease Mice [1] = experiment: Tg2576 study: Y-maze test; type: in vivo; conditions: for # of Spontaneous Alterations (Y-Maze) / % Spontaneous Alterations (Y-Maze): G3 Tg2576 mice
Procedure: (§1) Mice were weighed and randomized into groups. All the test formulations were freshly administered to respective animals of each group as per body weight. Basal behavior of the animals was recorded and analyzed in open field, Y-Maze, and EPM. Post basal behavior, animals were treated with compound I-16 for the duration of 3 months (i.e., from 6 months until 9 months). During the treatment duration, animals were subjected to different behavioral tests such as OFT, Y-maze, and EPM at 7, 8 and 9 months. At the end of experiments (i.e., at 9 months) animals were subjected to Morris water maze test.
To test spatial working memory, animals were subjected to spontaneous alteration test in Y-maze (Arm length—57 cm). During the test, the animal was placed at the end of one arm and allowed to explore the arena for a duration of 10 minutes. During the testing session, the number of entries in each arm were recorded and % alterations were calculated.
% Spontaneous alteration=(Spontaneous alteration/Total Arm entries−2)×100

Tg2576 AD Disease Mice [2] = experiment: Tg2576 study: open field test; type: in vivo; conditions: for Open Field Test time spent in Central zone / Open Field Test time spent in Peripheral zone: G3 Tg2576 mice
Procedure: as §1
Prior to the treatment initiation at […], animals were subjected to open field test. […] The total distance travelled, and velocity were quantified using an automated video tracking software Ethovision XT for the duration of 10 minutes. A camera, located directly above the centre of the open field, records the session. Locomotor activities were expressed as the total distance travelled and velocity.

[3] = G3 Tg2576 AD disease mice, 50 mg/kg
[4] = 50 mg/kg then 80 mg/kg from day 36 p.o., 8th months
[5] = 50 mg/kg then 80 mg/kg from day 36 p.o., 9th months
[6] = 6th months (Basal, before treatment)

| SMILES | IC50 (HDAC6) | IC50 (HDAC7) [nM] | Y Maze: number of spontaneous alterations compared to G2 (Tg2576 + vehicle) (Tg2576 AD Disease Mice [1]; [3]) | # of Spontaneous Alterations (Y-Maze) (Tg2576 AD Disease Mice [1]; 50 mg/kg p.o., 7th months) | % Spontaneous Alterations (Y-Maze) (Tg2576 AD Disease Mice [1]; 50 mg/kg p.o., 7th months) [%] | # of Spontaneous Alterations (Y-Maze) (Tg2576 AD Disease Mice [1]; [4]) | % Spontaneous Alterations (Y-Maze) (Tg2576 AD Disease Mice [1]; [4]) [%] | # of Spontaneous Alterations (Y-Maze) (Tg2576 AD Disease Mice [1]; [5]) | % Spontaneous Alterations (Y-Maze) (Tg2576 AD Disease Mice [1]; [5]) [%] | # of Spontaneous Alterations (Y-Maze) (Tg2576 AD Disease Mice [1]; [6]) | % Spontaneous Alterations (Y-Maze) (Tg2576 AD Disease Mice [1]; [6]) [%] | Open Field Test: total distance, velocity, time spent in central and peripheral zone compared to G2 (Tg2576 + vehicle) (Tg2576 AD Disease Mice [2]; [3]) | Open Field Test time spent in Central zone (Tg2576 AD Disease Mice [2]; 50 mg/kg p.o., 7th months) | Open Field Test time spent in Peripheral zone (Tg2576 AD Disease Mice [2]; 50 mg/kg p.o., 7th months) | Open Field Test time spent in Central zone (Tg2576 AD Disease Mice [2]; [4]) | Open Field Test time spent in Peripheral zone (Tg2576 AD Disease Mice [2]; [4]) | Open Field Test time spent in Central zone (Tg2576 AD Disease Mice [2]; [5]) | Open Field Test time spent in Peripheral zone (Tg2576 AD Disease Mice [2]; [5]) | Open Field Test time spent in Central zone (Tg2576 AD Disease Mice [2]; [6]) | Open Field Test time spent in Peripheral zone (Tg2576 AD Disease Mice [2]; [6]) |
| --- | --- | --- | --- | --- | --- | --- | --- | --- | --- | --- | --- | --- | --- | --- | --- | --- | --- | --- | --- | --- |
| CC1CN(Cc2ccc(Nc3nccc(-c4ccc(C(=O)NO)cc4)n3)cc2F)CCO1 (racemic) [Compound I-8, 4-(2-((3-fluoro-4-((2-methylmorpholino)methyl)phenyl)amino)pyrimidin-4-yl)-N-hydroxybenzamide] | 34.7 nM and 35 nM | 12400 |  |  |  |  |  |  |  |  |  |  |  |  |  |  |  |  |  |  |
| C[C@@H]1CN(Cc2ccc(Nc3nccc(-c4ccc(C(=O)NO)cc4)n3)cc2F)CCO1 [Compound I-16, (R)-4-(2-((3-fluoro-4-((2-methylmorpholino)methyl)phenyl)amino)pyrimidin-4-yl)-N-hydroxybenzamide] |  |  | did not show any significant difference | 18.70 ± 6.96 | 57.59 ± 3.85 | 16.00 ± 2.59 | 41.65 ± 5.52 | 16.00 ± 2.48 | 43.66 ± 4.55 | 25.00 ± 5.19 | 53.60 ± 3.25 | did not show any significant difference | 25.12 ± 12.39 | 574.88 ± 12.39 | 79.09 ± 28.86 | 520.91 ± 28.86 | 61.69 ± 12.36 | 538.31 ± 12.36 | 57.11 ± 12.95 | 537.81 ± 12.63 |
